The text below walks through data of patent US9371322B2, “Bicyclic aza-amides for treatment of psychiatric disorders” (MAX-PLANCK-GESELLSCHAFT ZUR FÖRDERUNG DER WISSENSCHAFTEN …, priority 2012, dated 2016).

For assay [1], the target named is T1, FKBP52 (Homo sapiens, UniProt Q02790).
T1 construct: 400 nM FKBP51FK1, 1600 nM FKBP52FK1
T1 sequence (Q02790 50-138 limits assumed): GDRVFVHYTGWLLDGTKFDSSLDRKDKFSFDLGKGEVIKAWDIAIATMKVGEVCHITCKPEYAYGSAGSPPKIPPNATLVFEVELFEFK
Briefly: Competitive fluorescence polarization assay, binding to FKBP52. The following applies: for FKBP52 ligand efficiency (LE): LE=(ΔG)/N, ΔG=−RTlnKi, RT=0.6, N non-hydrogen atoms; for Ki: fluorescence polarization, FKBP52FK1, fluorescent tracer 20 nM final, 30 min room temperature. On the procedure:
(§1) Binding of the bicyclic compounds to FKBPs was measured using a competitive fluorescence polarization
(§2) The compound library ligand was dissolved in DMSO to reach a 100-times concentrated stock solution. This was used for a 1:1 serial dilution in DMSO. […] For FKBP12, -51FK1 and -52FK1 the binding assays were performed in duplicates in the plate format. The competition curves were analyzed by using SigmaPlot11. Data were fitted to a four parameter logistic curve to deduce the IC50 values.
A general note: In fluorescence polarisation assays a small probe gives low polarisation when free and higher when bound to something large.

Assay [2] deals with T2, FKBP51 (Homo sapiens, UniProt Q13451).
T2 construct: 400 nM FKBP51FK1, 1600 nM FKBP52FK1
T2 sequence (Q13451 42-130 limits assumed): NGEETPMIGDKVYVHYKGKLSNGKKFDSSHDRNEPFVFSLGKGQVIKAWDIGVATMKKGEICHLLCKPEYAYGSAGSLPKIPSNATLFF
Nature of the assay: Competitive fluorescence polarization assay, binding to FKBP51. The settings on record: for FKBP51 ligand efficiency (LE): LE=(ΔG)/N, ΔG=−RTlnKi, RT=0.6, N non-hydrogen atoms; for Ki: fluorescence polarization, FKBP51FK1, fluorescent tracer 20 nM final, 30 min room temperature. How it is done:
as §1, §2

The target in assay [3] is FKBP12 (Homo sapiens, UniProt P62942). Briefly: Competitive fluorescence polarization assay, binding to FKBP12. The settings on record: for FKBP12 ligand efficiency (LE): LE=(ΔG)/N, ΔG=−RTlnKi, RT=0.6, N non-hydrogen atoms; for Ki: fluorescence polarization, fluorescent tracer 20 nM final, 30 min room temperature. How it is done:
as §1, §2

Chain of FKBP12 (P62942 whole entry): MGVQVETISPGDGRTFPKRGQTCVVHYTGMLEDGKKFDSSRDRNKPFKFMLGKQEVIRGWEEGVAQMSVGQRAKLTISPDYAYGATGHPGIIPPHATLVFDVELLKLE

For `O=C1NCC2CCCC1N2S(=O)(=O)c1ccc2[nH]c(=O)sc2c1` (centres unmarked) [Compound 4e, 6-(2-oxo-3,9-diazabicyclo[3.3.1]nonan-9-ylsulfonyl)benzo[d]thiazol-2(3H)-one], in assay [1], the “FKBP52 ligand efficiency (LE)” value is reported as 0.26 and the inhibitory constant (Ki) was 46.4 ± 3.8 µM. Further, in assay [2], the “FKBP51 ligand efficiency (LE)” value is given as 0.27 and the inhibition constant (Ki) came to 27 ± 1.7 µM. In assay [3], the “FKBP12 ligand efficiency (LE)” value was 0.42 and the Ki came to 100 ± 0.5 nM.
Regarding `O=C1C2CCCC(CN1c1ccccc1)N2S(=O)(=O)c1ccc(Cl)cc1` (centres unmarked) [Compound 4h], the Ki in assay [1] and in assay [2] was more than 100 µM in each case.
For `COc1ccc(CCN2CCC3CCCC(C2=O)N3C(=O)C(=O)c2cc(OC)c(OC)c(OC)c2)cc1OC` (centres unmarked) [Compound 5h, 1-(3-(3,4-dimethoxyphenethyl)-2-oxo-3,10-diazabicyclo[4.3.1]-decan-10-yl)-2-(3,4,5-trimethoxyphenyl)ethane-1,2-dione, reference compound], the figures for the Ki in assay [1], in assay [2] and in assay [3] were more than 100 µM, more than 100 µM and 1500 ± 40 nM, respectively. The “FKBP12 ligand efficiency (LE)” value in assay [3] is 0.21.
`C=C[C@H]1CN(CCOc2ccc(OC)c(OC)c2)C(=O)[C@@H]2CCC[C@H]1N2S(=O)(=O)c1cc(Cl)cc(Cl)c1` [Compound 5k, (1S,5S,6R)-10-(3,5-dichlorophenylsulfonyl)-3-(2-(3,4-dimethoxyphenoxyl)ethyl)-5-vinyl-3,10-diazabicyclo[4.3.1]decan-2-one]: affinity in assay [2] was put at a Ki of 2.1 ± 0.4 µM.
On to `CCC(C)(C)C(=O)C(=O)N1C2CCCC1C(=O)N(CCOc1ccc(OC)c(OC)c1)CC2` (centres unmarked) [Compound 5f, 1-(3-(2-(3,4-dimethoxyphenoxyl)ethyl)-2-oxo-3,10-diazabicyclo-[4.3.1]decan-10-yl)-3,3-dimethylpentane-1,2-dione, reference compound], for which the Ki in assay [1] was more than 100 µM; in assay [2] it was more than 100 µM; in assay [3], 1500 ± 100 nM. The “FKBP12 ligand efficiency (LE)” value in assay [3] turned out to be 0.24.
For `COc1ccc(OCCN2CCC3CCCC(C2=O)N3S(=O)(=O)c2ccc3[nH]c(=O)sc3c2)cc1OC` (centres unmarked) [Compound 5d, 6-(3-(2-(3,4-dimethoxyphenoxy)ethyl)-2-oxo-3,10-diazabicyclo[4.3.1]decan-10-ylsulfonyl)benzo[d]thiazol-2(3H)-one], in assay [1], the “FKBP52 ligand efficiency (LE)” value amounted to 0.22 and the affinity, expressed as Ki, was 1.2 ± 0.2 µM. For the same compound, in assay [2], the “FKBP51 ligand efficiency (LE)” value was 0.24 and the affinity, expressed as Ki, was 0.3 ± 0.02 µM. In assay [3], the “FKBP12 ligand efficiency (LE)” value came to 0.34 and the inhibitory constant (Ki) came out at 1 ± 0.3 nM.
For the compound `O=C1NCCC2CCCC1N2S(=O)(=O)c1ccc2[nH]c(=O)sc2c1` (centres unmarked) [Compound 5e, 6-(2-oxo-3,10-diazabicyclo[4.3.1]decan-10-ylsulfonyl)benzo[d]thiazol-2(3H)-one], in assay [1], the “FKBP52 ligand efficiency (LE)” value was determined as 0.27 and the Ki was determined as 22.6 ± 1 µM. For the same compound, in assay [2], the “FKBP51 ligand efficiency (LE)” value was 0.29 and the affinity, expressed as Ki, was 9.8 ± 0.5 µM. In assay [3], the “FKBP12 ligand efficiency (LE)” value turned out to be 0.41 and the Ki is 60 ± 2 nM.
Take `CCOC(=O)C1CCCCN1S(=O)(=O)c1ccc2[nH]c(=O)sc2c1` (centres unmarked) [Compound 3d, ethyl 1-(2-oxo-2,3-dihydrobenzo[d]thiazol-6-ylsulfonyl)piperidine-2-carboxylate, reference compound]: the Ki in assay [1] is more than 100 µM; in assay [3] it was 200 ± 4 nM. In addition, the “FKBP12 ligand efficiency (LE)” value in assay [3] amounted to 0.38.
With `COc1ccc(OCCN2CC3CCCC(C2=O)N3S(=O)(=O)c2ccc3ncsc3c2)cc1OC` (centres unmarked) [Compound 4c, 9-(benzo[d]thiazol-6-ylsulfonyl)-3-(2-(3,4-dimethoxyphenoxyl)ethyl)-3,9-diazabicyclo[3.3.1]nonan-2-one], in assay [2], the “FKBP51 ligand efficiency (LE)” value amounted to 0.17 and the Ki worked out at 64.8 ± 12.3 µM. Also, in assay [3], the “FKBP12 ligand efficiency (LE)” value is listed as 0.24 and the Ki is 900 ± 2000 nM.
Regarding `COc1ccc(OCCN2CCC3CCCC(C2=O)N3S(=O)(=O)c2cc(Cl)cc(Cl)c2)cc1OC` (centres unmarked) [Compound 5b, 10-(3,5-dichlorophenylsulfonyl)-3-(2-(3,4-dimethoxyphenoxy)ethyl)-3,10-diazabicyclo[4.3.1]decan-2-one], in assay [1], the “FKBP52 ligand efficiency (LE)” value was 0.23 and the Ki came to 1.6 ± 0.3 µM. For the same compound, in assay [2], the “FKBP51 ligand efficiency (LE)” value is 0.23 and the inhibition constant (Ki) was 1.2 ± 0.2 µM. In assay [3], the “FKBP12 ligand efficiency (LE)” value came out at 0.32 and affinity was put at a Ki of 10 ± 2 nM.
In turn, `CCN1CC2CCCC(C1=O)N2C(=O)C(=O)c1cc(OC)c(OC)c(OC)c1` (centres unmarked) [Compound 4g, 1-(3-ethyl-2-oxo-3,9-diazabicyclo[3.3.1]nonan-9-yl)-2-(3,4,5-trimethoxyphenyl)ethane-1,2-dione, reference compound] came in with an inhibition constant Ki in assay [1] of more than 100 µM. For the same compound, in assay [3], the “FKBP12 ligand efficiency (LE)” value is 0.26 and the Ki turned out to be 6300 ± 20 nM.
Consider `COc1ccc(OCCN2CC3CCCC(C2=O)N3S(=O)(=O)c2cc(Cl)cc(Cl)c2)cc1OC` (centres unmarked) [Compound 4b, 9-(3,5-dichlorophenylsulfonyl)-3-(2-(3,4-dimethoxyphenoxyl)ethyl)-3,9-diazabicyclo[3.3.1]nonan-2-one], for which, in assay [1], the “FKBP52 ligand efficiency (LE)” value is given as 0.20 and the inhibition constant (Ki) turned out to be 12.2 ± 3.7 µM. In assay [2], the “FKBP51 ligand efficiency (LE)” value is reported as 0.21 and the affinity, expressed as Ki, was 8.8 ± 1.1 µM. Further, in assay [3], the “FKBP12 ligand efficiency (LE)” value is listed as 0.28 and the Ki was 140 ± 10 nM.
With `C=CC[C@@H]1/C=C(\C)C[C@H](C)C[C@H](OC)[C@H]2O[C@@](O)(C(=O)C(=O)N3CCCC[C@H]3C(=O)O[C@H](/C(C)=C/[C@@H]3CC[C@@H](O)[C@H](OC)C3)[C@H](C)[C@@H](O)CC1=O)[C@H](C)C[C@@H]2OC` [FK 506, FK506, reference compound], affinity in assay [2] was put at a Ki of 0.028 ± 0.005 µM.
In the case of `COc1ccc(OCCN2CCC3CCCC(C2=O)N3S(=O)(=O)c2cc(Cl)c(O)c(Cl)c2)cc1OC` (centres unmarked) [Compound 5i, 10-(3,5-dichloro-4-hydroxyphenylsulfonyl)-3-(2-(3,4-dimethoxyphenoxyl)ethyl)-3,10-diazabicyclo[4.3.1]decan-2-one], in assay [1], the “FKBP52 ligand efficiency (LE)” value is listed as 0.21 and the affinity corresponds to a Ki of 3.5 ± 0.4 µM. Also, in assay [2], the “FKBP51 ligand efficiency (LE)” value was determined as 0.23 and the Ki is 1 ± 0.1 µM. In assay [3], the “FKBP12 ligand efficiency (LE)” value stood at 0.24 and affinity was put at a Ki of 400 ± 40 nM.
Regarding `COc1ccc(OCCOC(=O)C2CCCCN2S(=O)(=O)c2ccc3ncsc3c2)cc1OC` (centres unmarked) [Compound 3c, 2-(3,4-dimethoxyphenoxyl)ethyl 1-(benzo[d]thiazol-6-ylsulfonyl)-piperidine-2-carboxylate, reference compound], the Ki in assay [1] is more than 100 µM; in assay [3], 100 ± 0.03 nM. The “FKBP12 ligand efficiency (LE)” value in assay [3] was determined as 0.28.
On to `COc1ccc(OCCOC(=O)C2CCCCN2S(=O)(=O)c2cc(Cl)cc(Cl)c2)cc1OC` (centres unmarked) [Compound 3b, 2-(3,4-dimethoxyphenoxyl)ethyl 1-(3,5-dichlorophenyisulfonyl)-piperidine-2-carboxylate, reference compound], for which the Ki is more than 100 µM in assay [1] and 400 ± 6 nM in assay [3]. Besides, in assay [3], the “FKBP12 ligand efficiency (LE)” value turned out to be 0.27.
In the case of `COc1ccc(OCCN2CC3CCCC(C2=O)N3S(=O)(=O)c2ccc3[nH]c(=O)sc3c2)cc1OC` (centres unmarked) [Compound 4d, 6-(3-(2-(3,4-dimethoxyphenoxyl)ethyl)-2-oxo-3,9-diazabicyclo[3.3.1]nonan-9-ylsulfonyl)benzo[d]thiazol-2(3H)-one], in assay [2], the “FKBP51 ligand efficiency (LE)” value came to 0.19 and affinity was put at a Ki of 13.9 ± 0.9 µM. In assay [3], the “FKBP12 ligand efficiency (LE)” value was 0.28 and the inhibition constant Ki worked out at 70 ± 0.4 nM.
`COc1ccc(OCCOC(=O)C2CCCCN2C(=O)C(=O)c2cc(OC)c(OC)c(OC)c2)cc1OC` (centres unmarked) [Compound 3a, 2-(3,4-dimethoxyphenoxyl)ethyl 1-(2-oxo-2-(3,4,5-trimethoxy-phenyl)acetyl)piperidine-2-carboxylate, reference compound] had a Ki in assay [1] of more than 100 µM. In addition, in assay [3], the “FKBP12 ligand efficiency (LE)” value stood at 0.22 and the Ki is 300 ± 30 nM.
In the case of `COc1ccc(OCCN2CC3CCCC(C2=O)N3C(=O)C(=O)c2cc(OC)c(OC)c(OC)c2)cc1OC` (centres unmarked) [Compound 4a, 1-(3-(2-(3,4-dimethoxyphenoxyl)ethyl)-2-oxo-3,9-diazabicyclo[3.3.1]nonan-9-yl)-2-(3,4,5-trimethoxyphenyl)ethane-1,2-dione, reference compound], in assay [1], the “FKBP52 ligand efficiency (LE)” value is given as 0.15 and the inhibition constant Ki amounted to 79.4 ± 20 µM. In assay [2], the “FKBP51 ligand efficiency (LE)” value amounted to 0.15 and the Ki came to 51.1 ± 7.6 µM. Moreover, in assay [3], the “FKBP12 ligand efficiency (LE)” value came to 0.24 and the inhibition constant Ki was 200 ± 10 nM.
Take `COc1ccc(OCCN2CCC3CCCC(C2=O)N3S(=O)(=O)c2ccc3ncsc3c2)cc1OC` (centres unmarked) [Compound 5c, 10-(benzo[d]thiazol-6-ylsulfonyl)-3-(2-(3,4-dimethoxyphenoxyl)ethyl)-3,10-diazabicyclo[4.3.1]decan-2-one]: in assay [1], the “FKBP52 ligand efficiency (LE)” value was determined as 0.21 and the Ki amounted to 3.6 ± 0.5 µM. In assay [2], the “FKBP51 ligand efficiency (LE)” value stood at 0.22 and affinity was put at a Ki of 2.1 ± 0.2 µM. In assay [3], the “FKBP12 ligand efficiency (LE)” value is recorded as 0.29 and the inhibition constant Ki turned out to be 30 ± 7 nM.

By Ki is commonly meant a measure of affinity in units of concentration, obtained from inhibition or displacement. Higher therefore signals weaker binding.
